Source: article PMC4457651 (Biochimica et biophysica acta, 2015)

Assays:
[1] = molecular target: rCcP (heme and Trp-191 cavity) (Saccharomyces cerevisiae, UniProt P00431); assay: Kinetics of ligand binding to rCcP; set-up: species or system baker's yeast; settings: for Time for initial binding phase to be complete: first kinetic phase, manual mixing
[2] = molecular target: yCcP (heme and Trp-191 cavity) (Saccharomyces cerevisiae, UniProt P00431); assay: Kinetics of ligand binding to yCcP; set-up: species or system S. cervisiae; settings: for KA2: Trp-191 cavity of yCcP; for KA2 / k4: fit to Eq. 5; for k4: Trp-191 cavity of yCcP/MIM complex
horse metMb = settings: read-out: KDapp, metMb; pH 7; cited from earlier work
[3] = molecular target: T1, yeast cytochrome c peroxidase (yCcP) (Saccharomyces cerevisiae, UniProt P00431); assay: Equilibrium binding to heme of yCcP by spectrophotometric titration; set-up: species or system S. cervisiae; settings: for KAapp: calculated from best-fit line
T1 sequence (P00431 68-361): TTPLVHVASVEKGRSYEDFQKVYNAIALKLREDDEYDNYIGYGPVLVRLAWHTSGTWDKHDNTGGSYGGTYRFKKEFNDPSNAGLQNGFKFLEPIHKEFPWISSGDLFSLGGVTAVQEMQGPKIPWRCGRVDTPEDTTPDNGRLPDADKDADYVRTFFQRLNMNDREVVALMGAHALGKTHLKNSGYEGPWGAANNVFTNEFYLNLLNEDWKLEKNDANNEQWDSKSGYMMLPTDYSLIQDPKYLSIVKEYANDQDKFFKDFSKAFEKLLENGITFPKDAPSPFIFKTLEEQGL

CcP(H52L) = CcP(H52L) (Saccharomyces cerevisiae, UniProt P00431, H119L); assay: Equilibrium binding to CcP; set-up: species or system baker's yeast
[4] = neutral pH; cited from earlier work
[5] = molecular target: recombinant cytochrome c peroxidase (rCcP) (Saccharomyces cerevisiae, UniProt P00431); assay: Equilibrium binding to heme of rCcP by spectrophotometric titration; set-up: species or system baker's yeast
[6] = molecular target: Rhodobacter sphaeroides cytochrome c1; settings: read-out: KD, Rhodobacter sphaeroides cytochrome c1 imidazole complex; cited from earlier work
cytochrome P450CAM = settings: read-out: KD, cytochrome P450CAM imidazole complex; cited from earlier work
nitric oxide synthase = settings: read-out: KD, nitric oxide synthase imidazole complex; cited from earlier work
sperm whale metMb = settings: cited from earlier work
horse cytochrome c = settings: read-out: KD, horse cytochrome c imidazole complex; cited from earlier work
[7] = molecular target: Chironomus plumosus metHb; settings: read-out: KD, Chironomus plumosus metHb imidazole complex; cited from earlier work
[8] = ionization of free imidazole; cited from earlier work
[9] = molecular target: R. capsulatus cytochrome c2(M96N); settings: read-out: KD, R. capsulatus cytochrome c2(M96N) imidazole complex; cited from earlier work
CcP(W191G) = settings: read-out: Apparent KD, CcP(W191G)/imidazole complex; cited from earlier work
[10] = test system: horseradish peroxidase (HRP); settings: pH 9.3; cited from earlier work
[11] = 8.76 μM rCcP, 3.15 M imidazole, pH 7.0
[12] = pH 7.0, biphasic imidazole titration

Chain of CcP(H52L) (P00431 68-361 H119L): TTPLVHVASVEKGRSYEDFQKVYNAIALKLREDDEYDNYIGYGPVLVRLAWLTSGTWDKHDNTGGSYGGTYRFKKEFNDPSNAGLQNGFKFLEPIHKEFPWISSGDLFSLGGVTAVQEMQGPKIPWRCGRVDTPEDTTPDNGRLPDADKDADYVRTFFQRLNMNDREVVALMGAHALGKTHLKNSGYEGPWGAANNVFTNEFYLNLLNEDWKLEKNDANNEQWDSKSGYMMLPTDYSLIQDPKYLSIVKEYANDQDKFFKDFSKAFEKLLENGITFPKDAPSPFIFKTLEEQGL

Cn1ccnc1 [1-Methylimidazole, 1-methylimidazole]
kfobs faster than kfobs for the imidazole/CcP reaction [1]: about 10 times
ksobs, observed rate constant of slow absorbance change ([1]; 9.07 μM rCcP, 0.992 M MIM, pH 7.0): (1.13 ± 0.06) × 10^−4 s^−1
kfobs, lower limit for initial binding ([1]; assuming 97% of reaction complete within 10 s mixing): ≥ 0.35 s⁻¹
Time for initial binding phase to be complete [1]: ≤ 10 s
Time for initial binding phase to be complete ([1]; listed as MIM): less than 10 s
KA1 as fraction of KAapp ([1]; pH 7): about 4%
Kd [2]: 5 ± 2 mM
KA2 ([2]; pH 4.1): (2.94 ± 0.28) × 10^2 M^−1
KA2 ([2]; pH 4.5): (9.19 ± 0.52) × 10^1 M^−1
KA2 ([2]; pH 5.0): (1.74 ± 0.17) × 10^2 M^−1
KA2 ([2]; pH 5.5): (1.73 ± 0.35) × 10^2 M^−1
KA2 ([2]; pH 6.0): (2.64 ± 0.18) × 10^2 M^−1
KA2 ([2]; pH 6.5): (2.13 ± 0.27) × 10^2 M^−1
KA2 ([2]; pH 7.0): (2.13 ± 0.81) × 10^3 M^−1
KA2 ([2]; pH 7.5): (4.52 ± 5.10) × 10^3 M^−1
k4 ([2]; pH 4.1): (1.55 ± 0.08) × 10^−1 M^−1 s^−1
k4 ([2]; pH 4.5): (2.49 ± 0.16) × 10^−2 M^−1 s^−1
k4 ([2]; pH 5.0): (2.72 ± 0.35) × 10^−2 M^−1 s^−1
k4 ([2]; pH 5.5): (1.14 ± 0.03) × 10^−2 M^−1 s^−1
k4 ([2]; pH 6.0): (1.60 ± 0.03) × 10^−2 M^−1 s^−1
k4 ([2]; pH 6.5): (1.26 ± 0.03) × 10^−2 M^−1 s^−1
k4 ([2]; pH 7.0): (9.21 ± 3.17) × 10^−3 M^−1 s^−1
k4 ([2]; pH 7.5): (5.48 ± 1.2) × 10^0 M^−1 s^−1
k4, average ([2]; binding into Trp-191 cavity of heme-ligated yCcP, average pH 4.1 to 6.5): (4.1 ± 0.6) × 10^−2 M^−1s^−1
KA2, average ([2]; binding into Trp-191 cavity, yCcP, average pH 4.1 to 6.5): 200 ± 70 M⁻¹
Kd (horse metMb): 87 mM
Apparent pKa of ionizable group affecting MIM binding affinity ([3]; Saccharomyces cerevisiae (yeast), pH 4): 5.2 ± 0.3
Increase in binding affinity on decreasing pH from 7.5 to 4.0 ([3]; yCcP): 4 fold
KAapp ([3]; yCcP, pH 4.1): 4.72 M⁻¹
KAapp ([3]; yCcP, pH 4.5): 4.37 M⁻¹
KAapp ([3]; yCcP, pH 5.0): 3.53 M⁻¹
KAapp ([3]; yCcP, pH 5.5): 2.48 M⁻¹
KAapp ([3]; yCcP, pH 6.0): 1.74 M⁻¹
KAapp ([3]; yCcP, pH 6.5): 1.40 M⁻¹
KAapp ([3]; yCcP, pH 7.0): 1.30 M⁻¹
KAapp ([3]; yCcP, pH 7.5): 1.24 M⁻¹

O=[N+]([O-])c1c[nH]cn1 [4-Nitroimidazole, 4-nitroimidazole]
Kd (CcP(H52L)): ~30 mM
Fraction of CcP(H52L)/4NI complex formed (CcP(H52L); 4.80 mM 4NI, pH 7.0, estimate): about 14%
Affinity of CcP(H52L) higher than CcP (CcP(H52L); estimated): 7 fold
Concentration of saturated solution in aqueous buffer [4]: less than 6 mM
Kd (horse metMb): 2.5 mM
Fraction of yCcP bound to ligand at highest ligand concentration ([3]; ~5 mM 4NI, pH 7.0, estimate): about 2%
Kd [5]: ~100 mM
Fraction of rCcP bound to ligand at highest ligand concentration ([5]; ~5 mM 4NI, pH 7.0, estimate): ~ 5%

c1c[nH]cn1 [Imidazole, imidazole]
Kd [6]: 0.033 mM
Kd (cytochrome P450CAM): 0.4 mM
kfobs, observed rate constant of fast phase [1, 11]: (2.13 ± 0.08) × 10^−2 s^−1
ksobs, observed rate constant of slow phase [1, 11]: (2.91 ± 0.01) × 10^−4 s^−1
Kd (nitric oxide synthase): 0.063 mM
High-affinity phase of CcP(H52L): greater affinity than yCcP (CcP(H52L)): 25 fold
Low-affinity phase of CcP(H52L) weaker than binding by yCcP (CcP(H52L)): about 3 times
Fraction of high-affinity phase, CcP(H52L) (CcP(H52L); [12]): < 46%
Fraction of low-affinity phase, CcP(H52L) (CcP(H52L); [12]): > 54%
Rate constant of binding to sperm whale metMb (sperm whale metMb): 360 M⁻¹ s⁻¹
Kd (sperm whale metMb; read-out: KD, sperm whale metmyoglobin imidazole complex): 26 mM
Kd (horse cytochrome c): 34 mM
Kd [7]: 0.029 mM
pKA of free imidazole [8]: 14.4
Kd (horse metMb): 28 mM
Kd [9]: 0.0018 mM
Kd (CcP(W191G)): 0.7 mM
Formation of HRP/imidazole complex [10]: Only partial formation
Fraction of yCcP bound to ligand at highest ligand concentration ([3]; imidazole up to 4.90 M, pH 7.0): about 60%
Binding to CcP weaker than binding to metmyoglobin ([3]; pH 7): about 120 times
KDapp of rCcP complex larger than for yCcP complex ([5]; pH 7.0): about 40%

c1c[nH]cn1 [imidazolium ion]
Rate constant of binding to sperm whale metMb (sperm whale metMb): 127 M⁻¹ s⁻¹
